In brackets after ≈: the same amount, converted by molar mass. Several values for one entry are separate records, joined by “and”; a condition that tells them apart may be missing. Equal values may be shown once. Residues, ends and D or L forms follow the SMILES beside them.
Key:
E. coli DPC6053 [1] = test: 96-well plate assay (OD600), MIC; assay type: cell-based, Escherichia coli; conditions: for minimum inhibitory concentration (MIC): E. coli DPC6053, 6 h at 37° C., OD600
Procedure: (§1) Preliminary characterisation of the antibacterial activity of peptides and fractions synthesised involved measurement of growth inhibition in a 96-well plate assay (1, 10) and utilisation of an agar diffusion method (16,39). […] A control without bacteria (sterility control) was also included. The plates were incubated for 6 h at 37° C. and culture growth monitored hourly. Minimum inhibitory concentrations (MIC's) were taken as the lowest concentration without visible growth, measured by recording the OD600, in a micro-titre plate reader. A well diffusion assay (16, 40) was used to detect antibacterial activity of purified and chemically synthesised peptides. These assays were performed in either Brain Heart Infusion (BHI), Luria Bertani (LB) or Nutrient agar (NA) seeded with 1 ml of an overnight culture of the indicator strains E. coli DPC6053, L. innocua DPC3306, E. sakazakii 5920 (ATCC12868) or E. sakazakii 8272 (NCTC8155) respectively. Wells, 4.6 mm in diameter, were cut into these agar plates, and 30 μl (0.162 mg/ml) of the peptide fraction placed in each well. Plates were stored at 4° C. for 4 h to permit radial diffusion of the peptide, incubated at 30° C. anaerobically or 37° C. aerobically for 24 h, and examined for zones of inhibition. The sensitivity of a strain to the peptides was scored according to the diameter of the zone of inhibition surrounding the well. The experiments were performed in triplicate and mean zone size calculated.

E. coli DPC6053 [2] = test: agar well diffusion assay, E. coli DPC6053; assay type: cell-based, Escherichia coli JM109; set-up: key to zone of inhibition (inhibitory spectrum): +++: Zone of inhibition >2.0 cm in diameter produced.; ++: Zone of inhibition >1.5 cm in diameter produced.; +: Zone of inhibition >1.0 cm in diameter produced.; −: No zone detected; conditions: for zone of inhibition (inhibitory spectrum): Escherichia coli JM109 DPC6053, pure synthesised peptide; for concentration at which the indicator organism was inhibited: agar well-diffusion assay
Procedure: as §1

E. coli O157:H7 DPC6054 = test: agar well diffusion assay, E. coli O157:H7 DPC6054; assay type: cell-based, Escherichia coli; set-up: key to zone of inhibition (inhibitory spectrum): +++: Zone of inhibition >2.0 cm in diameter produced.; ++: Zone of inhibition >1.5 cm in diameter produced.; +: Zone of inhibition >1.0 cm in diameter produced.; −: No zone detected; conditions: for zone of inhibition (inhibitory spectrum): E. coli O157:H7 DPC6054, pure synthesised peptide
E. coli O157:H7 DPC6055 = test: agar well diffusion assay, E. coli O157:H7 DPC6055; assay type: cell-based, Escherichia coli; set-up: key to zone of inhibition (inhibitory spectrum): +++: Zone of inhibition >2.0 cm in diameter produced.; ++: Zone of inhibition >1.5 cm in diameter produced.; +: Zone of inhibition >1.0 cm in diameter produced.; −: No zone detected; conditions: for zone of inhibition (inhibitory spectrum): E. coli O157:H7 DPC6055, pure synthesised peptide
[3] = test system: E. sakazakii 5920 (ATCC12868); test: agar well diffusion assay, E. sakazakii 5920; assay type: cell-based, Enterobacter sakazakii; set-up: key to zone of inhibition (inhibitory spectrum): +++: Zone of inhibition >2.0 cm in diameter produced.; ++: Zone of inhibition >1.5 cm in diameter produced.; +: Zone of inhibition >1.0 cm in diameter produced.; −: No zone detected; conditions: for zone of inhibition (inhibitory spectrum): Enterobacter sakazakii ATCC12868 DPC6090, pure synthesised peptide
Procedure: as §1

[4] = test system: E. sakazakii 8272 (NCTC8155); test: agar well diffusion assay, E. sakazakii 8272; assay type: cell-based, Enterobacter sakazakii; set-up: key to zone of inhibition (inhibitory spectrum): +++: Zone of inhibition >2.0 cm in diameter produced.; ++: Zone of inhibition >1.5 cm in diameter produced.; +: Zone of inhibition >1.0 cm in diameter produced.; −: No zone detected; conditions: for zone of inhibition (inhibitory spectrum): E. sakazakii NCTC8155 DPC6091, pure synthesised peptide
Procedure: as §1

L. innocua DPC3306 = test: agar well diffusion assay, L. innocua DPC3306; assay type: cell-based; conditions: Listeria innocua DPC3306; for zone of inhibition (inhibitory spectrum): pure synthesised peptide
Procedure: as §1

[5] = test system: Staphylococcus aureus DPC5246; test: agar well diffusion assay, S. aureus DPC5246; assay type: cell-based; set-up: key: +++: Zone of inhibition >2.0 cm in diameter produced.; ++: Zone of inhibition >1.5 cm in diameter produced.; +: Zone of inhibition >1.0 cm in diameter produced.; −: No zone detected; conditions: pure synthesised peptide
[6] = test system: Lactobacillus bulgaricus ATCC11842 DPC5383; test: agar well diffusion assay, L. bulgaricus DPC5383; assay type: cell-based; set-up: key: +++: Zone of inhibition >2.0 cm in diameter produced.; ++: Zone of inhibition >1.5 cm in diameter produced.; +: Zone of inhibition >1.0 cm in diameter produced.; −: No zone detected; conditions: pure synthesised peptide
[7] = test system: Streptococcus mutans DPC4069; test: agar well diffusion assay, S. mutans DPC4069; assay type: cell-based; set-up: key: +++: Zone of inhibition >2.0 cm in diameter produced.; ++: Zone of inhibition >1.5 cm in diameter produced.; +: Zone of inhibition >1.0 cm in diameter produced.; −: No zone detected; conditions: pure synthesised peptide
E. coli DPC6053 [8] = test: susceptibility to proteinase K, agar well diffusion assay; assay type: cell-based, Escherichia coli; conditions: proteinase K 2050 U/ml, 1:1 volume ratio, 4° C., 6 h
Procedure: Plates were incubated at 37° C. for 24 h. The positive controls used were the peptides isracidin (Peptide Protein Research Ltd.) and Cecropin P1 (Sigma TM).

[9] = test system: lactobacilli and other Gram-positive bacteria; conditions: Floris et al. 2003; cited from earlier work
[10] = test system: S. aureus, Streptococcus pyogenes and L. monocytogenes; conditions: doses as low as; cited from earlier work

Molecule | zone of inhibition (inhibitory spectrum) (E. coli DPC6053 [2]) | concentration at which the indicator organism was inhibited (E. coli DPC6053 [2]; E. coli DPC6053) [mM] | zone of inhibition (inhibitory spectrum) (E. coli O157:H7 DPC6054) | zone of inhibition (inhibitory spectrum) (E. coli O157:H7 DPC6055) | zone of inhibition (inhibitory spectrum) [3] | zone of inhibition (inhibitory spectrum) [4] | zone of inhibition (inhibitory spectrum) (L. innocua DPC3306) | zone of inhibition (inhibitory spectrum) [5] | zone of inhibition (inhibitory spectrum) [6] | zone of inhibition (inhibitory spectrum) [7] | minimum inhibitory concentration (MIC) (E. coli DPC6053 [1]) | antimicrobial activity after treatment with proteinase K (E. coli DPC6053 [8]) | also measured
CC[C@H](C)[C@H](NC(=O)CNC(=O)[C@H](CCC(=O)O)NC(=O)[C@H](CO)NC(=O)[C@@H](NC(=O)[C@H](CCCNC(=N)N)NC(=O)[C@H](CCCCN)NC(=O)[C@H](CCCCN)NC(=O)[C@H](C)NC(=O)[C@H](CO)NC(=O)[C@H](CC(N)=O)NC(=O)[C@H](CCC(=O)O)NC(=O)[C@H](CC(C)C)NC(=O)[C@H](CCCCN)NC(=O)[C@H](CCCCN)NC(=O)[C@H](C)NC(=O)[C@@H](NC(=O)[C@H](CCCCN)NC(=O)[C@H](CO)NC(=O)[C@H](CC(C)C)NC(=O)[C@H](Cc1c[nH]c2ccccc12)NC(=O)[C@@H](N)CO)[C@@H](C)O)[C@@H](C)CC)C(=O)N[C@@H](C)C(=O)N[C@H](C(=O)N[C@@H](C)C(=O)N[C@H](C(=O)N[C@@H](CCC(N)=O)C(=O)NCC(=O)NCC(=O)N1CCC[C@H]1C(=O)N[C@@H](CCCNC(=N)N)C(=O)O)[C@@H](C)CC)[C@@H](C)CC [Cecropin P1] (H-SWLSKTAKKLENSAKKRISEGIAIAIQGGPR-OH) |  |  |  |  |  |  |  |  |  |  |  |  | MIC of commercially available control peptides (E. coli DPC6053 [1]; strain not given): 50 µM
CC[C@H](C)[C@H](N)C(=O)N[C@@H](CCCCN)C(=O)N[C@@H](Cc1c[nH]cn1)C(=O)N[C@@H](CCC(N)=O)C(=O)NCC(=O)N[C@@H](CC(C)C)C(=O)N1CCC[C@H]1C(=O)N[C@@H](CCC(N)=O)C(=O)N[C@@H](CCC(=O)O)C(=O)O [SEQ ID NO: 1] (H-IKHQGLPQE-OH; N-terminus and C-terminus assumed) | +++ (Zone of inhibition >2.0 cm in diameter produced.) | 0.05 | +++ (Zone of inhibition >2.0 cm in diameter produced.) | +++ (Zone of inhibition >2.0 cm in diameter produced.) | +++ (Zone of inhibition >2.0 cm in diameter produced.) | +++ (Zone of inhibition >2.0 cm in diameter produced.) | ++ (Zone of inhibition >1.5 cm in diameter produced.) | − | +++ (Zone of inhibition >2.0 cm in diameter produced.) | ++ (Zone of inhibition >1.5 cm in diameter produced.) | 78 µM (≈ 81.8 µg/mL) | lose their antibacterial activity | concentration at which inhibition was shown (E. coli O157:H7 DPC6054; agar well-diffusion assay, E. coli DPC6054 (O157:H7 derivative)): 0.05 mM; concentration at which inhibition was shown (E. coli O157:H7 DPC6055; agar well-diffusion assay, E. coli DPC6055 (O157:H7 derivative)): 0.05 mM; concentration at which inhibition was shown ([3]; agar well-diffusion assay, E. sakazakii 5920 (ATCC12868)): 0.05 mM
CC(C)C[C@H](NC(=O)[C@H](CC(C)C)NC(=O)[C@H](CC(N)=O)NC(=O)[C@H](CCC(=O)O)NC(=O)[C@H](CC(N)=O)NC(=O)[C@H](CC(C)C)NC(=O)[C@@H](N)C(C)C)C(=O)N[C@@H](CCCNC(=N)N)C(=O)O [SEQ ID NO: 3] (H-VLNENLLR-OH; N-terminus and C-terminus assumed) | +++ (Zone of inhibition >2.0 cm in diameter produced.) | 0.22 | +++ (Zone of inhibition >2.0 cm in diameter produced.) | +++ (Zone of inhibition >2.0 cm in diameter produced.) | +++ (Zone of inhibition >2.0 cm in diameter produced.) | +++ (Zone of inhibition >2.0 cm in diameter produced.) | ++ (Zone of inhibition >1.5 cm in diameter produced.) | − | +++ (Zone of inhibition >2.0 cm in diameter produced.) | ++ (Zone of inhibition >1.5 cm in diameter produced.) | 220 µM (≈ 213 µg/mL) | lose their antibacterial activity | concentration at which inhibition was shown ([4]; agar well-diffusion assay, E. sakazakii DPC6091): 0.22 mM
CC[C@H](C)[C@H](NC(=O)[C@@H]1CCCN1C(=O)[C@H](Cc1cnc[nH]1)NC(=O)[C@H](CCCCN)NC(=O)[C@@H]1CCCN1C(=O)[C@@H](N)CCCNC(=N)N)C(=O)N[C@@H](CCCCN)C(=O)N[C@@H](Cc1cnc[nH]1)C(=O)N[C@@H](CCC(N)=O)C(=O)NCC(=O)N[C@@H](CC(C)C)C(=O)N1CCC[C@H]1C(=O)N[C@@H](CCC(N)=O)C(=O)N[C@@H](CCC(=O)O)C(=O)N[C@H](C(=O)N[C@@H](CC(C)C)C(=O)N[C@@H](CC(N)=O)C(=O)N[C@@H](CCC(=O)O)C(=O)N[C@@H](CC(N)=O)C(=O)N[C@@H](CC(C)C)C(=O)N[C@@H](CC(C)C)C(=O)N[C@@H](CCCNC(=N)N)C(=O)N[C@@H](Cc1ccccc1)C(=O)O)C(C)C [isracidin, Isracidin] (H-RPKHPIKHQGLPQEVLNENLLRF-OH) |  |  |  |  |  |  |  |  |  |  | 50 µM and 59 µM |  | concentration inhibiting in vitro growth [9]: 0.1 to 1 mg/mL; dose with strong protective effect [10]: 10 μg per mouse
SDIPNPIGSENSEK (Strain DPC6026; listed as Lactobacillus acidophilus) [SEQ ID NO: 2, peptide of bovine αs1-casein f(183-207), found in fraction A1-49, chemically synthesised] | − |  | − | − | − | − | + (Zone of inhibition >1.0 cm in diameter produced.) | − | − | − |  | lose their antibacterial activity | inhibitory / antimicrobial activity (in words) (E. coli DPC6053 [2]; E. coli DPC6053, crude fermentates: 96-well plate assay or well diffusion assay): no activity; inhibitory / antimicrobial activity (in words) (L. innocua DPC3306; crude fermentates: 96-well plate assay or well diffusion assay): some inhibitory activity
